Results as given in US20250098679A1, “HERBICIDAL PYRIDONE DERIVATIVES” (SYNGENTA CROP PROTECTION AG, priority 2021, published 2025).

How the values were obtained:
Format in all cases: in vivo
[1] = test system: Setaria faberi (SETFA); test: Pre-emergence Test, Setaria faberi (SETFA); conditions: 1000 g/ha, evaluated after 13 days
[2] = test system: Echinochloa crus-galli (ECHCG); test: Pre-emergence Test, Echinochloa crus-galli (ECHCG); conditions: 1000 g/ha, evaluated after 13 days
[3] = test system: Zea mays (ZEAMX); test: Pre-emergence Test, Zea mays (ZEAMX); conditions: 1000 g/ha, evaluated after 13 days
[4] = test system: Ipomoea hederacea (IPOHE); test: Pre-emergence Test, Ipomoea hederacea (IPOHE); conditions: 1000 g/ha, evaluated after 13 days
[5] = test system: Amaranthus palmeri (AMAPA); test: Pre-emergence Test, Amaranthus palmeri (AMAPA); conditions: 1000 g/ha, evaluated after 13 days
[6] = test system: Amaranthus retoflexus (AMARE); test: Pre-emergence Test, Amaranthus retoflexus (AMARE); conditions: 1000 g/ha, evaluated after 13 days
[7] = test system: Setaria faberi (SETFA); test: Post-emergence Test, Setaria faberi (SETFA); design: key to percentage damage caused to the plant, SETFA (five-point scale): 5=81-100%, 4=61-80%, 3=41-60%, 2=21-40%, 1=0-20% damage; conditions: evaluated after 13 days
Method in brief: (§1)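 Sown pots in a glasshouse (24/16 °C day/night, 14 h light, 65% humidity) were sprayed with compound in acetone/water (50:50) with 0.5% Tween 20, at 1000 g/ha unless otherwise stated. Damage was assessed 13 days after spraying and scored 1–5 (5=81-100%, 1=0-20%).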

[8] = test system: Echinochloa crus-galli (ECHCG); test: Post-emergence Test, Echinochloa crus-galli (ECHCG); design: key to percentage damage caused to the plant, ECHCG (five-point scale): 5=81-100%, 4=61-80%, 3=41-60%, 2=21-40%, 1=0-20% damage; conditions: evaluated after 13 days
Method in brief: as §1

[9] = test system: Zea mays (ZEAMX); test: Post-emergence Test, Zea mays (ZEAMX); design: key to percentage damage caused to the plant, ZEAMX (five-point scale): 5=81-100%, 4=61-80%, 3=41-60%, 2=21-40%, 1=0-20% damage; conditions: evaluated after 13 days
Method in brief: as §1

[10] = test system: Ipomoea hederacea (IPOHE); test: Post-emergence Test, Ipomoea hederacea (IPOHE); design: key to percentage damage caused to the plant, IPOHE (five-point scale): 5=81-100%, 4=61-80%, 3=41-60%, 2=21-40%, 1=0-20% damage; conditions: evaluated after 13 days
Method in brief: as §1

[11] = test system: Amaranthus palmeri (AMAPA); test: Post-emergence Test, Amaranthus palmeri (AMAPA); design: key: 5=81-100%, 4=61-80%, 3=41-60%, 2=21-40%, 1=0-20% damage; conditions: evaluated after 13 days
Method in brief: as §1

[12] = test system: Amaranthus retoflexus (AMARE); test: Post-emergence Test, Amaranthus retoflexus (AMARE); design: key to percentage damage caused to the plant, AMARE (five-point scale): 5=81-100%, 4=61-80%, 3=41-60%, 2=21-40%, 1=0-20% damage; conditions: evaluated after 13 days
Method in brief: as §1

CCn1c(Cn2nc(C)cc2C)cc(=O)c(C(=O)O)c1-c1ccc(Cl)c(Cl)c1 [Compound 39, 2-(3,4-dichlorophenyl)-6-[(3,5-dimethylpyrazol-1-yl)methyl]-1-ethyl-4-oxo-pyridine-3-carboxylic acid]
2 (2=21-40%): Pre-emergence Test IPOHE, percentage damage caused to the plant (five-point scale) [4] | percentage damage caused to the plant, IPOHE (five-point scale) ([10]; 250 g/Ha) | percentage damage caused to the plant, IPOHE (five-point scale) ([10]; 1000 g/ha) | percentage damage caused to the plant, AMAPA (five-point scale) ([11]; 1000 g/ha) | percentage damage caused to the plant, AMARE (five-point scale) ([12]; 250 g/Ha) | percentage damage caused to the plant, AMARE (five-point scale) ([12]; 1000 g/ha)
4 (4=61-80%): Pre-emergence Test ECHCG, percentage damage caused to the plant (five-point scale) [2] | percentage damage caused to the plant, SETFA (five-point scale) ([7]; 1000 g/ha) | percentage damage caused to the plant, ECHCG (five-point scale) ([8]; 1000 g/ha) | percentage damage caused to the plant, ZEAMX (five-point scale) ([9]; 1000 g/ha)
0: Pre-emergence Test ZEAMX, percentage damage caused to the plant (five-point scale) [3] | percentage damage caused to the plant, ZEAMX (five-point scale) ([9]; 250 g/Ha)
3 (3=41-60%): Pre-emergence Test SETFA, percentage damage caused to the plant (five-point scale) [1] | percentage damage caused to the plant, ECHCG (five-point scale) ([8]; 250 g/Ha)
1 (1=0-20%): Pre-emergence Test AMAPA, percentage damage caused to the plant (five-point scale) [5] | Pre-emergence Test AMARE, percentage damage caused to the plant (five-point scale) [6] | percentage damage caused to the plant, SETFA (five-point scale) ([7]; 250 g/Ha) | percentage damage caused to the plant, AMAPA (five-point scale) ([11]; 250 g/Ha)

CCn1c(Cn2cc(C(=O)OC)cn2)cc(=O)c(C(=O)O)c1-c1ccc(Cl)c(Cl)c1 [Compound 40, 2-(3,4-dichlorophenyl)-1-ethyl-6-[(4-methoxycarbonylpyrazol-1-yl)methyl]-4-oxo-pyridine-3-carboxylic acid]
1 (1=0-20%): Pre-emergence Test SETFA, percentage damage caused to the plant (five-point scale) [1] | Pre-emergence Test AMARE, percentage damage caused to the plant (five-point scale) [6] | percentage damage caused to the plant, SETFA (five-point scale) ([7]; 1000 g/ha) | percentage damage caused to the plant, ECHCG (five-point scale) ([8]; 250 g/Ha) | percentage damage caused to the plant, AMAPA (five-point scale) ([11]; 1000 g/ha) | percentage damage caused to the plant, AMARE (five-point scale) ([12]; 250 g/Ha)
3 (3=41-60%): Pre-emergence Test AMAPA, percentage damage caused to the plant (five-point scale) [5]
0: Pre-emergence Test ECHCG, percentage damage caused to the plant (five-point scale) [2] | Pre-emergence Test ZEAMX, percentage damage caused to the plant (five-point scale) [3] | percentage damage caused to the plant, SETFA (five-point scale) ([7]; 250 g/Ha) | percentage damage caused to the plant, ECHCG (five-point scale) ([8]; 1000 g/ha) | percentage damage caused to the plant, ZEAMX (five-point scale) ([9]; 250 g/Ha) | percentage damage caused to the plant, IPOHE (five-point scale) ([10]; 250 g/Ha) | percentage damage caused to the plant, AMAPA (five-point scale) ([11]; 250 g/Ha) | percentage damage caused to the plant, AMARE (five-point scale) ([12]; 1000 g/ha)
2 (2=21-40%): Pre-emergence Test IPOHE, percentage damage caused to the plant (five-point scale) [4] | percentage damage caused to the plant, ZEAMX (five-point scale) ([9]; 1000 g/ha) | percentage damage caused to the plant, IPOHE (five-point scale) ([10]; 1000 g/ha)

CCn1c(Cn2cnc(OC)n2)cc(=O)c(C(=O)O)c1-c1ccc(Cl)c(Cl)c1 [Compound 44, 2-(3,4-dichlorophenyl)-1-ethyl-6-[(3-methoxy-1,2,4-triazol-1-yl)methyl]-4-oxo-pyridine-3-carboxylic acid]
3 (3=41-60%): Pre-emergence Test AMAPA, percentage damage caused to the plant (five-point scale) [5] | percentage damage caused to the plant, AMAPA (five-point scale) ([11]; 1000 g/ha)
0: Pre-emergence Test ZEAMX, percentage damage caused to the plant (five-point scale) [3] | percentage damage caused to the plant, AMARE (five-point scale) ([12]; 1000 g/ha)
1 (1=0-20%): Pre-emergence Test SETFA, percentage damage caused to the plant (five-point scale) [1] | Pre-emergence Test IPOHE, percentage damage caused to the plant (five-point scale) [4] | percentage damage caused to the plant, SETFA (five-point scale) ([7]; 1000 g/ha) | percentage damage caused to the plant, ECHCG (five-point scale) ([8]; 1000 g/ha) | percentage damage caused to the plant, ZEAMX (five-point scale) ([9]; 1000 g/ha)
2 (2=21-40%): Pre-emergence Test ECHCG, percentage damage caused to the plant (five-point scale) [2] | Pre-emergence Test AMARE, percentage damage caused to the plant (five-point scale) [6] | percentage damage caused to the plant, IPOHE (five-point scale) ([10]; 1000 g/ha)

CCn1c(Cn2ccnn2)cc(=O)c(C(=O)O)c1-c1ccc(Cl)c(Cl)c1 [Compound 45, 2-(3,4-dichlorophenyl)-1-ethyl-4-oxo-6-(triazol-1-ylmethyl)pyridine-3-carboxylic acid]
1 (1=0-20%): Pre-emergence Test SETFA, percentage damage caused to the plant (five-point scale) [1] | Pre-emergence Test AMAPA, percentage damage caused to the plant (five-point scale) [5] | percentage damage caused to the plant, SETFA (five-point scale) ([7]; 1000 g/ha) | percentage damage caused to the plant, ECHCG (five-point scale) ([8]; 1000 g/ha) | percentage damage caused to the plant, AMAPA (five-point scale) ([11]; 1000 g/ha)
0: Pre-emergence Test ZEAMX, percentage damage caused to the plant (five-point scale) [3] | Pre-emergence Test IPOHE, percentage damage caused to the plant (five-point scale) [4] | Pre-emergence Test AMARE, percentage damage caused to the plant (five-point scale) [6] | percentage damage caused to the plant, ZEAMX (five-point scale) ([9]; 1000 g/ha) | percentage damage caused to the plant, IPOHE (five-point scale) ([10]; 1000 g/ha) | percentage damage caused to the plant, AMARE (five-point scale) ([12]; 1000 g/ha)
4 (4=61-80%): Pre-emergence Test ECHCG, percentage damage caused to the plant (five-point scale) [2]

CCn1c(Cn2nccn2)cc(=O)c(C(=O)O)c1-c1ccc(Cl)c(Cl)c1 [Compound 48, 2-(3,4-dichlorophenyl)-1-ethyl-4-oxo-6-(triazol-2-ylmethyl)pyridine-3-carboxylic acid]
3 (3=41-60%): percentage damage caused to the plant, ECHCG (five-point scale) ([8]; 250 g/Ha) | percentage damage caused to the plant, ZEAMX (five-point scale) ([9]; 1000 g/ha) | percentage damage caused to the plant, AMAPA (five-point scale) ([11]; 1000 g/ha)
2 (2=21-40%): percentage damage caused to the plant, IPOHE (five-point scale) ([10]; 1000 g/ha)
5 (5=81-100%): Pre-emergence Test SETFA, percentage damage caused to the plant (five-point scale) [1] | Pre-emergence Test ECHCG, percentage damage caused to the plant (five-point scale) [2] | percentage damage caused to the plant, ECHCG (five-point scale) ([8]; 1000 g/ha)
0: Pre-emergence Test ZEAMX, percentage damage caused to the plant (five-point scale) [3] | Pre-emergence Test IPOHE, percentage damage caused to the plant (five-point scale) [4] | Pre-emergence Test AMARE, percentage damage caused to the plant (five-point scale) [6] | percentage damage caused to the plant, ZEAMX (five-point scale) ([9]; 250 g/Ha) | percentage damage caused to the plant, AMARE (five-point scale) ([12]; 1000 g/ha)
1 (1=0-20%): Pre-emergence Test AMAPA, percentage damage caused to the plant (five-point scale) [5] | percentage damage caused to the plant, AMAPA (five-point scale) ([11]; 250 g/Ha) | percentage damage caused to the plant, AMARE (five-point scale) ([12]; 250 g/Ha)
4 (4=61-80%): percentage damage caused to the plant, SETFA (five-point scale) ([7]; 250 g/Ha) | percentage damage caused to the plant, SETFA (five-point scale) ([7]; 1000 g/ha) | percentage damage caused to the plant, IPOHE (five-point scale) ([10]; 250 g/Ha)

CCn1c(Cn2cncn2)cc(=O)c(C(=O)O)c1-c1ccc(Cl)c(Cl)c1 [Compound 49, 2-(3,4-dichlorophenyl)-1-ethyl-4-oxo-6-(1,2,4-triazol-1-ylmethyl)pyridine-3-carboxylic acid]
2 (2=21-40%): Pre-emergence Test AMARE, percentage damage caused to the plant (five-point scale) [6] | percentage damage caused to the plant, SETFA (five-point scale) ([7]; 1000 g/ha) | percentage damage caused to the plant, ECHCG (five-point scale) ([8]; 1000 g/ha)
0: Pre-emergence Test SETFA, percentage damage caused to the plant (five-point scale) [1] | Pre-emergence Test ZEAMX, percentage damage caused to the plant (five-point scale) [3] | Pre-emergence Test IPOHE, percentage damage caused to the plant (five-point scale) [4] | percentage damage caused to the plant, ECHCG (five-point scale) ([8]; 250 g/Ha) | percentage damage caused to the plant, ZEAMX (five-point scale) ([9]; 250 g/Ha) | percentage damage caused to the plant, ZEAMX (five-point scale) ([9]; 1000 g/ha) | percentage damage caused to the plant, IPOHE (five-point scale) ([10]; 1000 g/ha) | percentage damage caused to the plant, AMAPA (five-point scale) ([11]; 250 g/Ha) | percentage damage caused to the plant, AMARE (five-point scale) ([12]; 250 g/Ha) | percentage damage caused to the plant, AMARE (five-point scale) ([12]; 1000 g/ha)
1 (1=0-20%): Pre-emergence Test ECHCG, percentage damage caused to the plant (five-point scale) [2] | Pre-emergence Test AMAPA, percentage damage caused to the plant (five-point scale) [5] | percentage damage caused to the plant, SETFA (five-point scale) ([7]; 250 g/Ha) | percentage damage caused to the plant, IPOHE (five-point scale) ([10]; 250 g/Ha) | percentage damage caused to the plant, AMAPA (five-point scale) ([11]; 1000 g/ha)
